# Assay results taken from patent US11945822B2, “Pyrazolo-triazine and/or pyrazolo-pxrimidine derivatives as selective inhibitor of cyclin dependent kinase” (QURIENT CO., LTD., priority 2018, dated 2024).
# Target: T1, CDK5/p25 (Homo sapiens, UniProt Q00535)
# T1 construct: purchased Invitrogen PR8543B
# Assay: Enzymatic assay for CDK5 (FRET based LANCE Ultra kinase assay)
# Type: biochemical
# Settings: read-out: CDK5 enzymatic activity (IC50 range)
# How it was run: (§1)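 Each CDK complex ([…]) phosphorylated 68 nM ULight-MBP peptide with ATP at Km for 60 min at 23° C., against 8 compound doses (4-fold dilutions). EDTA/Eu-anti-phospho-MBP detection, 60 min, then TR-FRET emission at 615 and 665 nm.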
# T1 sequence (Q00535 whole entry): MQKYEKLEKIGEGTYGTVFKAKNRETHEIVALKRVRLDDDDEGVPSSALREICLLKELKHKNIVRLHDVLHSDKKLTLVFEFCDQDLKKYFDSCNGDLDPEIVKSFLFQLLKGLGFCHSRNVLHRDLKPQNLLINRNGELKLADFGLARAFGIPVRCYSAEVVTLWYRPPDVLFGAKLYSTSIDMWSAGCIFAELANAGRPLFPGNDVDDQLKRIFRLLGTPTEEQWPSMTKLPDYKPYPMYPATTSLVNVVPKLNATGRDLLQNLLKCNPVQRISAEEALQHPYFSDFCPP
# T1 sequence (Q15078 99-307 partner limits assumed): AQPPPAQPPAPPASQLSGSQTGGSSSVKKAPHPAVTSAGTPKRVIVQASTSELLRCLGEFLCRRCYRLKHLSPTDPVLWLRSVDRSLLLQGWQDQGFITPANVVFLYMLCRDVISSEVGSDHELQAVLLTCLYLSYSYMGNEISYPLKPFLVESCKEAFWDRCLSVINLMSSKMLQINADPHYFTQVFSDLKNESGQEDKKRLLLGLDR
row,IC50 [nM],SMILES
1,> 1000,CC(C)c1cnn2c(NCc3ccccc3-c3ccc4ccccc4n3)nc(NCCC(O)CN)nc12 (racemic) [Compound 234]
2,> 1000,Cc1cccc(-n2ccc(C(C)(C)O)n2)c1CNc1nc(N2CCC(N)CC2)nc2c(C(C)C)cnn12 [Compound 230]
3,> 1000,Cc1cccc(-c2cc(C(C)(C)O)nn2C)c1CNc1nc(N2CCC(N)CC2)nc2c(C(C)C)cnn12 [Compound 231]
4,> 1000,CC(C)c1cnn2c(NCc3ccccc3-n3ccc(C(C)(C)O)n3)nc(NC[C@H]3CCNC[C@@H]3O)nc12 [Compound 233]

# Test system: MV4-11
# Assay: Cellular MV4-11 viability assay (CellTiter-Glo, 72 hours)
# Type: cell-based
# Settings: Homo sapiens
# How it was run: (§2)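 72 h treatment, 37 °C, 5% CO2; DMSO ctrl, final <0.1%; CellTiter-Glo luminescence; n=2.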
row,IC50 [nM],SMILES
1,< 1000,CC(C)c1cnn2c(NCc3ccccc3-c3ccc4ccccc4n3)nc(NCCC(O)CN)nc12 (racemic) [Compound 234]
2,< 1000,Cc1cccc(-n2ccc(C(C)(C)O)n2)c1CNc1nc(N2CCC(N)CC2)nc2c(C(C)C)cnn12 [Compound 230]
3,< 1000,Cc1cccc(-c2cc(C(C)(C)O)nn2C)c1CNc1nc(N2CCC(N)CC2)nc2c(C(C)C)cnn12 [Compound 231]
4,< 1000,CC(C)c1cnn2c(NCc3ccccc3-n3ccc(C(C)(C)O)n3)nc(NC[C@H]3CCNC[C@@H]3O)nc12 [Compound 233]

# Target: T2, CDK7/Cyclin H/MNAT1 (Homo sapiens, UniProt P50613)
# T2 construct: purchased Invitrogen PR6749B
# Assay: Enzymatic assay for CDK7 (FRET based LANCE Ultra kinase assay)
# Type: biochemical
# Settings: CDK7 over CDK1
# How it was run: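 LANCE Ultra TR-FRET kinase assay using a ULight-labeled peptide substrate and a Eu-labeled anti-phospho antibody, with ATP at its Km. Purified CDK/cyclin complex was added to compound after brief centrifugation.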
# T2 sequence (P50613 whole entry): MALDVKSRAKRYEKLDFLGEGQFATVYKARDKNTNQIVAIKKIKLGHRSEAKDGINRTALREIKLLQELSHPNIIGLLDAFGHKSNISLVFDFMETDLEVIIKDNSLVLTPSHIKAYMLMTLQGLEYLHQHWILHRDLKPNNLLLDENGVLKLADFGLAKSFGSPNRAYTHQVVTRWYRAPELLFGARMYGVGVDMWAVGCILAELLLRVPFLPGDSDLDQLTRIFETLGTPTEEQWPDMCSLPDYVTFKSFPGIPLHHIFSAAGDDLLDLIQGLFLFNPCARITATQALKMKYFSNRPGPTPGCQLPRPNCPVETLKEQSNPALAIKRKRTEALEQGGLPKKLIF
# T2 sequence (P51946 whole entry partner): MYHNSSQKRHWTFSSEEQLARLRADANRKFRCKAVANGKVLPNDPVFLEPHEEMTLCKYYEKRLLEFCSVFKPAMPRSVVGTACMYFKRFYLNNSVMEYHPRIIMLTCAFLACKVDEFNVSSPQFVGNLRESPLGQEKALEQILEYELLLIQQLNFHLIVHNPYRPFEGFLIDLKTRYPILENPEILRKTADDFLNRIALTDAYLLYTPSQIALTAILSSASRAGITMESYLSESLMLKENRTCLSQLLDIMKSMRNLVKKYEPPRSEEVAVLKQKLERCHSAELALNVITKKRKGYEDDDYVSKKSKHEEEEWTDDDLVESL
# T2 sequence (P51948 whole entry partner): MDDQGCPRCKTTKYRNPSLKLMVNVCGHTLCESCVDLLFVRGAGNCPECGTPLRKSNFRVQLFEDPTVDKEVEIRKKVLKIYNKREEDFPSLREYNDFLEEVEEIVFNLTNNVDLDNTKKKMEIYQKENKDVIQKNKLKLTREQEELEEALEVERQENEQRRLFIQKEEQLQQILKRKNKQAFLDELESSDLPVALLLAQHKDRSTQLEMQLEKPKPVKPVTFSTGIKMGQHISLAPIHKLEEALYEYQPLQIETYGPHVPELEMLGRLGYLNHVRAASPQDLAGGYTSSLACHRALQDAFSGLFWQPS
row,CDK1/CDK7: Selectivity of CDK7 inhibition over CDK1 inhibition,SMILES
1,A (A=greater than 200 fold),CC(C)c1cnn2c(NCc3ccccc3-c3ccc4ccccc4n3)nc(NCCC(O)CN)nc12 (racemic) [Compound 234]
2,A (A=greater than 200 fold),Cc1cccc(-n2ccc(C(C)(C)O)n2)c1CNc1nc(N2CCC(N)CC2)nc2c(C(C)C)cnn12 [Compound 230]
3,A (A=greater than 200 fold),Cc1cccc(-c2cc(C(C)(C)O)nn2C)c1CNc1nc(N2CCC(N)CC2)nc2c(C(C)C)cnn12 [Compound 231]
4,A (A=greater than 200 fold),CC(C)c1cnn2c(NCc3ccccc3-n3ccc(C(C)(C)O)n3)nc(NC[C@H]3CCNC[C@@H]3O)nc12 [Compound 233]

# Same assay, conditions: CDK7 over CDK2
row,CDK2/CDK7: Selectivity of CDK7 inhibition over CDK2 inhibition,SMILES
1,A (A=greater than 200 fold),CC(C)c1cnn2c(NCc3ccccc3-c3ccc4ccccc4n3)nc(NCCC(O)CN)nc12 (racemic) [Compound 234]
2,A (A=greater than 200 fold),Cc1cccc(-n2ccc(C(C)(C)O)n2)c1CNc1nc(N2CCC(N)CC2)nc2c(C(C)C)cnn12 [Compound 230]
3,A (A=greater than 200 fold),Cc1cccc(-c2cc(C(C)(C)O)nn2C)c1CNc1nc(N2CCC(N)CC2)nc2c(C(C)C)cnn12 [Compound 231]

row,SMILES,CDK2/CDK7: Selectivity of CDK7 inhibition over CDK2 inhibition
1,CC(C)c1cnn2c(NCc3ccccc3-n3ccc(C(C)(C)O)n3)nc(NC[C@H]3CCNC[C@@H]3O)nc12 [Compound 233],"B (B=less than 200 fold, but greater than 20 fold)"

# Same assay, conditions: CDK7 over CDK5
row,CDK5/CDK7: Selectivity of CDK7 inhibition over CDK5 inhibition,SMILES
1,A (A=greater than 200 fold),CC(C)c1cnn2c(NCc3ccccc3-c3ccc4ccccc4n3)nc(NCCC(O)CN)nc12 (racemic) [Compound 234]
2,A (A=greater than 200 fold),Cc1cccc(-n2ccc(C(C)(C)O)n2)c1CNc1nc(N2CCC(N)CC2)nc2c(C(C)C)cnn12 [Compound 230]
3,A (A=greater than 200 fold),Cc1cccc(-c2cc(C(C)(C)O)nn2C)c1CNc1nc(N2CCC(N)CC2)nc2c(C(C)C)cnn12 [Compound 231]
4,A (A=greater than 200 fold),CC(C)c1cnn2c(NCc3ccccc3-n3ccc(C(C)(C)O)n3)nc(NC[C@H]3CCNC[C@@H]3O)nc12 [Compound 233]

# Same assay, conditions: read-out: CDK7 enzymatic activity (IC50 range)
row,IC50 [nM],SMILES
1,< 100,CC(C)c1cnn2c(NCc3ccccc3-c3ccc4ccccc4n3)nc(NCCC(O)CN)nc12 (racemic) [Compound 234]
2,< 100,Cc1cccc(-n2ccc(C(C)(C)O)n2)c1CNc1nc(N2CCC(N)CC2)nc2c(C(C)C)cnn12 [Compound 230]
3,< 100,Cc1cccc(-c2cc(C(C)(C)O)nn2C)c1CNc1nc(N2CCC(N)CC2)nc2c(C(C)C)cnn12 [Compound 231]
4,< 100,CC(C)c1cnn2c(NCc3ccccc3-n3ccc(C(C)(C)O)n3)nc(NC[C@H]3CCNC[C@@H]3O)nc12 [Compound 233]

# Target: T3, CDK1/Cyclin B (Homo sapiens, UniProt P06493)
# T3 construct: purchased Invitrogen PR4768C
# Assay: Enzymatic assay for CDK1 (FRET based LANCE Ultra kinase assay)
# Type: biochemical
# Settings: read-out: CDK1 enzymatic activity (IC50 range)
# How it was run: as §1
# T3 sequence (P06493 whole entry): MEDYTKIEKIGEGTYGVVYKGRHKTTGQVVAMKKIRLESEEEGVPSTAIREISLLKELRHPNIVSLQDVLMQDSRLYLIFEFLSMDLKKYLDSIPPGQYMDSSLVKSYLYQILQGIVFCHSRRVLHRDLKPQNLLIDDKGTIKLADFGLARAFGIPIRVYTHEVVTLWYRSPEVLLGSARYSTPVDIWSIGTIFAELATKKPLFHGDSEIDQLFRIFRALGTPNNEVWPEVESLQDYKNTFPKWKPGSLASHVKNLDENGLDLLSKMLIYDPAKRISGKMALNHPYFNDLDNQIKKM
# T3 sequence (P14635 whole entry partner): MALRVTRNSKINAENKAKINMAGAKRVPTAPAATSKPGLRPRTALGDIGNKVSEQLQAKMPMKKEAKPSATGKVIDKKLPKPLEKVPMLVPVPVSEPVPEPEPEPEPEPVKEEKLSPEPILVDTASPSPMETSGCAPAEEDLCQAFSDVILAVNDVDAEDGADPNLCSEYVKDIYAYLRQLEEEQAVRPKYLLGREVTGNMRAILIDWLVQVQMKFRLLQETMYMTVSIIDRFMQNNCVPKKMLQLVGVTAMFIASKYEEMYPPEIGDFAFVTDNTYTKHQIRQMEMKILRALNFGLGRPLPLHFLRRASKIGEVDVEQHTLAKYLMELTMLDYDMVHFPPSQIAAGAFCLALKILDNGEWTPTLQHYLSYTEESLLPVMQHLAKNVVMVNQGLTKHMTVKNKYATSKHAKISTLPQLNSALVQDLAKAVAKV
row,IC50 [nM],SMILES
1,> 1000,CC(C)c1cnn2c(NCc3ccccc3-c3ccc4ccccc4n3)nc(NCCC(O)CN)nc12 (racemic) [Compound 234]
2,> 1000,Cc1cccc(-n2ccc(C(C)(C)O)n2)c1CNc1nc(N2CCC(N)CC2)nc2c(C(C)C)cnn12 [Compound 230]
3,> 1000,Cc1cccc(-c2cc(C(C)(C)O)nn2C)c1CNc1nc(N2CCC(N)CC2)nc2c(C(C)C)cnn12 [Compound 231]
4,> 1000,CC(C)c1cnn2c(NCc3ccccc3-n3ccc(C(C)(C)O)n3)nc(NC[C@H]3CCNC[C@@H]3O)nc12 [Compound 233]

# Test system: HCT116
# Assay: Cellular HCT116 viability assay (CellTiter-Glo, 72 hours)
# Type: cell-based
# Settings: Homo sapiens, HCT-116
# How it was run: as §2
row,IC50 [nM],SMILES
1,< 1000,CC(C)c1cnn2c(NCc3ccccc3-c3ccc4ccccc4n3)nc(NCCC(O)CN)nc12 (racemic) [Compound 234]
2,< 1000,Cc1cccc(-n2ccc(C(C)(C)O)n2)c1CNc1nc(N2CCC(N)CC2)nc2c(C(C)C)cnn12 [Compound 230]
3,< 1000,Cc1cccc(-c2cc(C(C)(C)O)nn2C)c1CNc1nc(N2CCC(N)CC2)nc2c(C(C)C)cnn12 [Compound 231]
4,< 1000,CC(C)c1cnn2c(NCc3ccccc3-n3ccc(C(C)(C)O)n3)nc(NC[C@H]3CCNC[C@@H]3O)nc12 [Compound 233]

# Test system: A2780
# Assay: Cellular A2780 viability assay (CellTiter-Glo, 72 hours)
# Type: cell-based
# Settings: Homo sapiens
# Source text: Human T-cell acute lymphoblastic leukemia cell line, MOLT-4 (ATCC, Cat #CRL-1582), Human multiple myeloma cell line, RPMI-8226 (Invitrogen, Cat #22400-089) and MM.1S (ATCC, Cat #CRL-2974), NSCLC (Non-small cell lung cancer) cell line H460 (ATCC, Cat #HTB-177), Human colon colorectal carcinoma cell line HCT116 (ATCC, Cat #CCL-247), Human acute monocytic leukemia cell line MV4-11 (ATCC, Cat #CRL-9591), OVCAR-3 (ATCC, Cat #HTB-161) and A2780 (ECACC, Cat #93112519) were obtained from ATCC. Cells were grown in RPMI-1640 media (Invitrogen, Cat #22400-089) supplemented with 10% FBS (Invitrogen, Cat #10099141) and 1% penicillin/streptomycin (Invitrogen, Cat #15070063) and cultured at 37° C., 5% CO2 in a humidified chamber. All cell lines were routinely tested for mycoplasma.
# The effect of the CDK7 inhibitor to inhibit the growth of target cancer cells was evaluated through the 72 hours time period of viability assay. Briefly, the candidate cell line ware plated in 96 well plate at the following density of cells respectively. 1×10^4 cells/well for MOLT-4, RPMI-8226, MV4-11 and MM.1S, 5×10^3 for H460, HCT116 and OVCAR-3 and IX 10^3 for A2780. After 24 hours, the cells were treated with various concentrations of the compound (ranging from 0.0015 uM to 10 uM). DMSO solvent without compound served as a control and final DMSO concentration less than 0.1%. After 72 hours of incubation at 37° C., 5% CO2 incubator, cells were analyzed for the viability using the CellTiter-Glo Luminescent Cell Viability Assay (Promega, Cat #G7570). All viability assays were performed in duplicate and Luminescence was read using an Envision (Perkin Elmer, USA). Data was analyzed using XLfit software.
row,IC50 [nM],SMILES
1,≤ 1000,CC(C)c1cnn2c(NCc3ccccc3-c3ccc4ccccc4n3)nc(NCCC(O)CN)nc12 (racemic) [Compound 234]
2,≤ 1000,Cc1cccc(-n2ccc(C(C)(C)O)n2)c1CNc1nc(N2CCC(N)CC2)nc2c(C(C)C)cnn12 [Compound 230]
3,≤ 1000,Cc1cccc(-c2cc(C(C)(C)O)nn2C)c1CNc1nc(N2CCC(N)CC2)nc2c(C(C)C)cnn12 [Compound 231]
4,≤ 1000,CC(C)c1cnn2c(NCc3ccccc3-n3ccc(C(C)(C)O)n3)nc(NC[C@H]3CCNC[C@@H]3O)nc12 [Compound 233]

# Target: T4, CDK2/Cyclin A (Homo sapiens, UniProt P24941)
# T4 construct: purchased Invitrogen PV6290
# Assay: Enzymatic assay for CDK2 (FRET based LANCE Ultra kinase assay)
# Type: biochemical
# Settings: read-out: CDK2 enzymatic activity (IC50 range)
# How it was run: as §1
row,IC50 [nM],SMILES
1,> 1000,CC(C)c1cnn2c(NCc3ccccc3-c3ccc4ccccc4n3)nc(NCCC(O)CN)nc12 (racemic) [Compound 234]
2,> 1000,Cc1cccc(-n2ccc(C(C)(C)O)n2)c1CNc1nc(N2CCC(N)CC2)nc2c(C(C)C)cnn12 [Compound 230]
3,> 1000,Cc1cccc(-c2cc(C(C)(C)O)nn2C)c1CNc1nc(N2CCC(N)CC2)nc2c(C(C)C)cnn12 [Compound 231]
4,100 to 1000,CC(C)c1cnn2c(NCc3ccccc3-n3ccc(C(C)(C)O)n3)nc(NC[C@H]3CCNC[C@@H]3O)nc12 [Compound 233]

# Test system: H460
# Assay: Cellular H460 viability assay (CellTiter-Glo, 72 hours)
# Type: cell-based
# Settings: Homo sapiens, NCI-H460
# How it was run: as §2
row,IC50 [nM],SMILES
1,< 1000,CC(C)c1cnn2c(NCc3ccccc3-c3ccc4ccccc4n3)nc(NCCC(O)CN)nc12 (racemic) [Compound 234]
2,< 1000,Cc1cccc(-n2ccc(C(C)(C)O)n2)c1CNc1nc(N2CCC(N)CC2)nc2c(C(C)C)cnn12 [Compound 230]
3,< 1000,Cc1cccc(-c2cc(C(C)(C)O)nn2C)c1CNc1nc(N2CCC(N)CC2)nc2c(C(C)C)cnn12 [Compound 231]
4,< 1000,CC(C)c1cnn2c(NCc3ccccc3-n3ccc(C(C)(C)O)n3)nc(NC[C@H]3CCNC[C@@H]3O)nc12 [Compound 233]
